Among the data in ChEMBL document CHEMBL1158725, “Microbial genomics as a guide to drug discovery and structural elucidation: ECO-02301, a novel antifungal agent, as an example” (2005) are MIC values, retold here.

As usually defined, the MIC is the smallest concentration in the dilution series that meets the test's criterion for growth inhibition.

Assay type in all cases: functional
The test system of one test is Candida albicans. Description: Antifungal activity against Candida albicans ATCC 10231 by broth dilution susceptibility test. For orientation: In broth dilution the organism is exposed to a series of concentrations in liquid medium.
The test system of a further test is Nakaseomyces glabratus. Description: Antifungal activity against Candida glabrata ATCC 90030 by broth dilution susceptibility test.
The test system of a further test is Clavispora lusitaniae. Kind of test: Antifungal activity against Candida lusitaniae ATCC 200953 by broth dilution susceptibility test.
For the next test, the system named is Candida tropicalis. Kind of test: Antifungal activity against Candida tropicalis ATCC 200955 by broth dilution susceptibility test.
The subject of a further test is Pichia kudriavzevii. Description: Antifungal activity against Candida krusei LSPQ 0309 by broth dilution susceptibility test.
The subject of a further test is Saccharomyces cerevisiae. Kind of test: Antifungal activity against Saccharomyces cerevisiae ATCC 9763 by broth dilution susceptibility test.
The next test has as its system Aspergillus fumigatus. Kind of test: Antifungal activity against Aspergillus fumigatus ATCC 204305 by broth dilution susceptibility test.
The test system of a further test is Aspergillus flavus. Description: Antifungal activity against Aspergillus flavus ATCC 204304 by broth dilution susceptibility test.
Another test relates to Cryptococcus neoformans. Description: Antifungal activity against Cryptococcus neoformans ATCC 32045 by broth dilution susceptibility test.

Values after ≈ are worked out from the molar mass of the structure shown.

As for `CC(/C=C/CC/C=C/C=C/C=C/C=C/C(=O)NC1=C(O)CCC1=O)C(O)C(C)C(O)/C=C/C=C/C=C/C=C/C=C/CC(O[C@@H]1O[C@@H](C)[C@H](O)[C@@H](O)[C@H]1O)C(C)C(=O)CC(O)CC(O)CC(O)/C=C/CC(O)CC(O)CC(O)CC(O)/C=C/CC(O)CC(O)CCCN` (stereo in doubt), the MIC against Candida albicans, against Nakaseomyces glabratus, against Clavispora lusitaniae, in the test with Candida tropicalis, against Pichia kudriavzevii and with Saccharomyces cerevisiae was 4 µg/mL (≈ 3.08 µM) each time. The MIC in the test with Aspergillus fumigatus is 16 µg/mL (≈ 12.3 µM); against Aspergillus flavus, no less than 8 µg/mL; in the test on Cryptococcus neoformans, 4 µg/mL (≈ 3.08 µM).

Take `C[C@@H]1[C@H](O)[C@@H](C)/C=C/C=C/C=C/C=C/C=C/C=C/C=C/[C@H](O[C@@H]2O[C@H](C)[C@@H](O)[C@H](N)[C@@H]2O)C[C@@H]2O[C@](O)(C[C@@H](O)C[C@@H](O)[C@H](O)CC[C@@H](O)C[C@@H](O)CC(=O)O[C@H]1C)C[C@H](O)[C@H]2C(=O)O` [AMPHOTERICIN B]: the minimal inhibitory concentration (MIC) is 1 µg/mL (≈ 1.08 µM) in the test on Candida albicans; 1 µg/mL (≈ 1.08 µM) in the test on Nakaseomyces glabratus; 1 µg/mL (≈ 1.08 µM) against Clavispora lusitaniae; 2 µg/mL (≈ 2.16 µM) against Candida tropicalis; 1 µg/mL (≈ 1.08 µM) against Saccharomyces cerevisiae; 2 µg/mL (≈ 2.16 µM) against Aspergillus fumigatus. This compound registered an MIC against Aspergillus flavus of 4 µg/mL (≈ 4.33 µM).
